The experiment has as its system BLT1 and BLT2 receptors. Put plainly: Ca2+ flux assay for LTB4 antagonist assay (HL-60 FLIPR). The format is cell-based, Human. The conditions noted are these: retinoic acid induced HL-60 cells endogenously expressing BLT1 and BLT2; inhibition of LTB4-induced Ca2+ flux; 30 min compound preincubation; read-out: LTB4 antagonism (HL-60 FLIPR). The method, then:
Ca^2+ Flux Assay for LTB4 Antagonist Assay
Human leukemia HL-60 cells endogenously expressing BLT1 and BLT2 receptors were cultured in RPMI-1640 medium supplemented with 20% fetal bovine serum, 2 mM glutamine, 100 U/mL penicillin and 100 ug/mL streptomycin.
Seventy two hours prior to experiment cells are counted using ViaCount reagent, centrifuged and resuspended at 2.0×10^5 cells/ml density with the complete growth media containing 1 μM retinoic acid (Sigma).
On a day of the experiment loading buffer (Calcium-3 Assay Kit, Molecular Devices) was prepared by dissolving the contents of one vial (Express Kit) into 500 ml Hank's Balanced Salt Solution containing 20 mM HEPES and 5 mM probenecid. Equal volume of the loading buffer was mixed with the replacement buffer (Hank's Balanced Salt Solution containing 20 mM HEPES, 0.05% BSA and 5 mM probenecid). Retinoic acid induced HL-60 cells were counted using ViaCount reagent, centrifuged and resuspended at 2.0×10^6 cells/mL density with the loading buffer/replacement buffer, dispensed into 384 well black/clear microplates (Falcon)(25 μL/well) and placed in a 37° C./5% CO2 incubator for 1 hour.
During the incubation, test compounds were prepared at 6× the desired concentration in HBSS/20 mM HEPES/0.05% BSA as well as LTB4 (Biomol) was prepared at 2.2× concentration in HBSS/20 mM HEPES/0.5% BSA buffer.
After the incubation, both the cell and compound plates were brought to the FLIPR and 5 μL of the diluted compounds were transferred to the cell plates by the FLIPR. Plates were then incubated for 30 min at room temperature. After the ½ hour incubation, plates were returned to the FLIPR and 25 μL of 2.2×LTB4 was added to the cell plates. During the assay, fluorescence readings were taken simultaneously from all 384 wells of the cell plate every 1.5 seconds. Five readings were taken to establish a stable baseline, then 25 μL (LTB4) of sample was rapidly and simultaneously added to each well of the cell plate. The fluorescence was continuously monitored before, during and after sample addition for a total elapsed time of 100 seconds. Responses (increase in peak fluorescence) in each well following agonist addition was determined. The initial fluorescence reading from each well, prior to ligand stimulation, was used a zero baseline value for the data from that well. The responses are expressed as % inhibition of the neutral control (neural control: wells that received buffer plus DMSO but no test compound).
A general note: Calcium flux is commonly read through the fluorescence of an indicator in the cells.
In the case of `O=C(O)CCCOc1cccc(CCCCCCOc2cc(C(=O)NCc3ccccc3)cc(-c3c(F)cccc3F)c2)c1CCC(=O)O` [Example 5, 4-[3-[6-(5-Benzylcarbamoyl-2′,6′-difluoro-biphenyl-3-yloxy)-hexyl]-2-(2-carboxy-ethyl)-phenoxy]-butyric acid], the IC50 is 299 nM. Then `Cc1cscc1-c1cc(OCCCCCCc2cccc(OCCCC(=O)O)c2CCC(=O)O)cc(C(=O)N2CCN(C)CC2)c1` [Example 24, 4-(2-(2-Carboxy-ethyl)-3-{6-[3-(4-methyl-piperazine-1-carbonyl)-5-(4-methyl-thiophen-3-yl)-phenoxy]-hexyl}-phenoxy)-butyric acid], with 47.3 nM; and `CN1CCN(C(=O)c2cc(OCCCCCCc3cccc(OCCCC(=O)O)c3CCC(=O)O)cc(-c3ccccc3)c2)CC1` [Example 28, 4-(2-(2-Carboxy-ethyl)-3-{6-[5-(4-methyl-piperazine-1-carbonyl)-biphenyl-3-yloxy]-hexyl}-phenoxy)-butyric acid], with 0.22 nM. The value for `CN1CCCN(C(=O)c2cc(OCCCCCCc3cccc(OCCCC(=O)O)c3CCC(=O)O)cc(-c3ccc4c(c3)OCO4)c2)CC1` [Example 36, 4-[3-{6-[3-Benzo[1,3]dioxol-5-yl-5-(4-methyl-[1,4]diazepane-1-carbonyl)-phenoxy]-hexyl}-2-(2-carboxy-ethyl)-phenoxy]-butyric acid] was 0.14 nM. The value for `O=C(O)CCCOc1cccc(CCCCCCOc2cc(C(=O)N3CCCCC3)cc(-c3ccc4c(c3)OCO4)c2)c1CCC(=O)O` [Example 42, 4-[3-{6-[3-Benzo[1,3]dioxol-5-yl-5-(piperidine-1-carbonyl)-phenoxy]-hexyl}-2-(2-carboxy-ethyl)-phenoxy]-butyric acid] was 0.21 nM. Take `O=C(O)CCCOc1cccc(CCCCCCOc2cc(C(=O)N3CCNCC3)cc(-c3ccc4c(c3)OCO4)c2)c1CCC(=O)O` [Example 44, 4-[3-{6-[3-Benzo[1,3]dioxol-5-yl-5-(piperazine-1-carbonyl)-phenoxy]-hexyl}-2-(2-carboxy-ethyl)-phenoxy]-butyric acid]: the IC50 was found to be 0.08 nM. `CC1CCCN(C(=O)c2cc(OCCCCCCc3cccc(OCCCC(=O)O)c3CCC(=O)O)cc(-c3ccc4c(c3)OCO4)c2)C1` (stereo not shown) [Example 46, 4-[3-{6-[3-Benzo[1,3]dioxol-5-yl-5-(3-methyl-piperidine-1-carbonyl)-phenoxy]-hexyl}-2-(2-carboxy-ethyl)-phenoxy]-butyric acid]: the IC50 worked out at 7.46 nM.

On to `O=C(O)CCCOc1cccc(CCCCCCOc2cc(C(=O)NC3CC3)cc(-c3ccc4c(c3)OCO4)c2)c1CCC(=O)O` [Example 51, 4-[3-[6-(3-Benzo[1,3]dioxol-5-yl-5-cyclopropylcarbamoyl-phenoxy)-hexyl]-2-(2-carboxy-ethyl)-phenoxy]-butyric acid], for which the IC50 is 0.08 nM.

In the case of `CN(C)C(=O)c1cc(OCCCCCCc2cccc(OCCCC(=O)O)c2CCC(=O)O)cc(-c2ccc3c(c2)OCO3)c1` [Example 53, 4-[3-[6-(3-Benzo[1,3]dioxol-5-yl-5-dimethylcarbamoyl-phenoxy)-hexyl]-2-(2-carboxy-ethyl)-phenoxy]-butyric acid], the IC50 turned out to be 0.1 nM. For `NC(=O)c1cc(OCCCCCCc2cccc(OCCCC(=O)O)c2CCC(=O)O)cc(-c2ccc3c(c2)OCO3)c1` [Example 55, 4-[3-[6-(3-Benzo[1,3]dioxol-5-yl-5-carbamoyl-phenoxy)-hexyl]-2-(2-carboxy-ethyl)-phenoxy]-butyric acid], the IC50 was found to be 0.2 nM. The value for `O=C(O)CCCOc1cccc(CCCCCCOc2cc(C(=O)NC3CCC3)cc(-c3ccc4c(c3)OCO4)c2)c1CCC(=O)O` [Example 61, 4-[3-[6-(3-Benzo[1,3]dioxol-5-yl-5-cyclobutylcarbamoyl-phenoxy)-hexyl]-2-(2-carboxy-ethyl)-phenoxy]-butyric acid] was 0.21 nM; that for `O=C(O)CCCOc1cccc(CCCCCCOc2cc(C(=O)NC3CCC3)cc(-c3cccc(F)c3)c2)c1CCC(=O)O` [Example 67, 4-{2-(2-Carboxy-ethyl)-3-[6-(5-cyclobutylcarbamoyl-3′-fluoro-biphenyl-3-yloxy)-hexyl]-phenoxy}-butyric acid] was 52.2 nM; that for `CCN(C)C(=O)c1cc(OCCCCCCc2cccc(OCCCC(=O)O)c2CCC(=O)O)cc(-c2ccc3c(c2)OCO3)c1` [Example 73, 4-[3-{6-[3-Benzo[1,3]dioxol-5-yl-5-(ethyl-methyl-carbamoyl)-phenoxy]-hexyl}-2-(2-carboxy-ethyl)-phenoxy]-butyric acid] was 0.25 nM. Then `CNC(=O)c1cc(OCCCCCCc2cccc(OCCCC(=O)O)c2CCC(=O)O)cc(-c2ccc3c(c2)OCCO3)c1` [Example 77, 4-(2-(2-Carboxy-ethyl)-3-{6-[3-(2,3-dihydro-benzo[1,4]dioxin-6-yl)-5-methylcarbamoyl-phenoxy]-hexyl}-phenoxy)-butyric acid], with 2.41 nM. Then `CN(C)C(=O)c1cc(OCCCCCCc2cccc(OCCCC(=O)O)c2CCC(=O)O)cc(-c2ccsc2)c1` [Example 85, 4-{2-(2-Carboxy-ethyl)-3-[6-(3-dimethylcarbamoyl-5-thiophen-3-yl-phenoxy)-hexyl]-phenoxy}-butyric acid], with 0.28 nM; and `Cc1ccc(-c2cc(OCCCCCCc3cccc(OCCCC(=O)O)c3CCC(=O)O)cc(C(=O)N(C)C)c2)cc1F` [Example 105, 4-{2-(2-Carboxy-ethyl)-3-[6-(5-dimethylcarbamoyl-3′-fluoro-4′-methyl-biphenyl-3-yloxy)-hexyl]-phenoxy}-butyric acid], with 0.79 nM; and `Cc1ccc(-c2cc(OCCCCCCc3cccc(OCCCC(=O)O)c3CCC(=O)O)cc(C(=O)N(C)C)c2)cc1` [Example 112, 4-{2-(2-Carboxy-ethyl)-3-[6-(5-dimethylcarbamoyl-4′-methyl-biphenyl-3-yloxy)-hexyl]-phenoxy}-butyric acid], with 0.24 nM. Take `CN1CCN(C(=O)c2cc(CCCCCCCc3cccc(OCCCC(=O)O)c3CCC(=O)O)cc(-c3ccccc3)c2)CC1` [Example 118, 4-(2-(2-Carboxy-ethyl)-3-{7-[5-(4-methyl-piperazine-1-carbonyl)-biphenyl-3-yl]-heptyl}-phenoxy)-butyric acid]: the IC50 worked out at 19.5 nM. In the case of `CN(C)C(=O)c1cc(C#CCCCCCc2cccc(OCCCC(=O)O)c2CCC(=O)O)cc(-c2ccc(O)cc2)c1` [Example 122, 4-{2-(2-Carboxy-ethyl)-3-[7-(5-dimethylcarbamoyl-4′-hydroxy-biphenyl-3-yl)-hept-6-ynyl]-phenoxy}-butyric acid], the IC50 was determined as 15.6 nM.
